Patent US20240254119A1 (THIRD HARMONIC BIO, INC., priority 2022, published 2024)
pIC50: −log10 of the molar value.

Legend:
Kinetic solubility assay = format: physicochemical; details: kinetic solubility, 50 mM PB (pH 7.4), shaken 24 hours at RT
Summary of the method: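 Concentration in the filtrate was determined by UPLC-UV or HPLC-UV with a standard curve. Before that, compound (10 mM DMSO stock) in 50 mM PB at pH 7.4 was agitated 24 h at room temperature, then PTFE-filtered with centrifugation.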

[1] = molecular target: T1, BCRP (BCRP-MDCKII monolayer) (Homo sapiens, UniProt Q9UNQ0); test: MDCKII-BCRP bidirectional transport assay; format: in vitro ADME; details: for MDCK-BCRP: Papp A-B: apical to basolateral
T1 construct: host or cells: MDCKII (canine kidney) cells
T1 sequence (Q9UNQ0 1-655): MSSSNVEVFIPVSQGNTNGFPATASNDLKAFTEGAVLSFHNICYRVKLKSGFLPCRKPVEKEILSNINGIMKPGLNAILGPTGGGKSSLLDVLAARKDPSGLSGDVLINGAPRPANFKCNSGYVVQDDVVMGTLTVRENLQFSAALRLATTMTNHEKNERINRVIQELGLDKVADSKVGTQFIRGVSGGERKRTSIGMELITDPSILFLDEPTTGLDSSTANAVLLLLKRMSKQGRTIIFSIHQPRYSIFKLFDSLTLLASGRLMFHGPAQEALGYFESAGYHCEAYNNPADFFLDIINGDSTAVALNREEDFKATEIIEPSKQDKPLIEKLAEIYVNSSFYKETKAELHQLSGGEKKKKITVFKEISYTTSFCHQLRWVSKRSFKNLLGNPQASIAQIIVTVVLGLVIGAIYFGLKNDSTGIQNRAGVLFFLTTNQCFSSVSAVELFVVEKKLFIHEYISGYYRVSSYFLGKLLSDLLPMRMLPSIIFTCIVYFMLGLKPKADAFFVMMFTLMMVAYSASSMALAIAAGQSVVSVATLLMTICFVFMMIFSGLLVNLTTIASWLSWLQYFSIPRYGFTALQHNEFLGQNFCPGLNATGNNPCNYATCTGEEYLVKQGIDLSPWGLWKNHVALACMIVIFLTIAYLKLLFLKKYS
Method: Exemplary compounds were tested for cell permeability in Caco-2, MDCKII-MDR1 and MDCKII-BCRP cell lines with efflux transporter engagement inferred from the efflux ratios determined. Procedures and results are described below. […] This feature of certain compounds is in part due to efflux transporter engagement. See, for instance, exemplary such compounds included in data tables below.
The reference compound Teriflunomide and test compounds are tested in the bidirectional assay. Test compound and reference compounds incubations were tested in duplicates.
The transport assay can be performed between days 12 to day 15 using ready to use PreadyPort™ BCRP-MDCKII monolayer in 96 well plate.
The medium was aspirated from the apical and basal compartments and 75 and 235 μL assay buffer was added to each of the 96 wells of apical and basal compartments of the PreadyPort™ plate.
The plates were pre-incubated for 15 min at 37° C. with 5% CO2 in humidified atmosphere. After preincubation the assay buffer was removed from the apical and basal inserts of the plate.
In apical to basolateral (A→B) transport, 75 μL of test or reference compound working solution to apical inserts and 235 μL of blank assay buffer were added to the corresponding basal compartments.
In basolateral to apical transport, 235 μL of test or reference compound working solution to the basal compartments and 75 μL of blank assay buffer solution were added to corresponding apical inserts.
The sandwich plate was incubated for 120 min in incubator at 5% CO2 and 37° C.
After incubation, 60 μL was transferred from receiver and donor compartments to collection plate.
For donor and C0 samples 20-fold dilution was accomplished by mixing 60 μL of collected sample with 1140 μL of transport buffer and from that solution aliquot 60 μL transfer Both receiver and donor samples were processed by adding […] of acetonitrile containing internal standard (60 μL of sample+240 μL of acetonitrile containing glyburide as internal standard, 125 ng/mL) and vortexing the samples. The compound concentration was measured in all samples using respective calibration standards by LC-MS/MS.
Calculate the Papp and recovery using the given formula:
[formula] [formula] • Where: dQ/dt=Permeability rate in μM/see • C0=Initial concentration in μM • A=Membrane surface area (0.33 cm^2) • V=Volume of receiver chamber • Cend, a=concentration in acceptor well at end of incubation • Cend, d=concentration in donor well at end of incubation • CHBSS=loading concentration measured in HBSS

wtKIT = molecular target: T2, wtKIT (Homo sapiens, UniProt P10721); test: Caliper biochemical assay, wtKIT; details: Table 6, read-out: KIT Biochemical IC50 avg
T2 construct: 1888289AM in the reaction mixtures
Method: Enzyme, substrate, and cofactors (ATP and Mn^2+) are combined in a well of a microtiter plate and incubated for 3 hours at 25° C. At the end of the incubation, the reaction is quenched by the addition of an EDTA-containing buffer. Substrate and product are separated electrophoretically using the microfluidic-based LabChip 3000 Drug Discovery System from Caliper Life Sciences* and quantitated by fluorescence intensity.
The substrate used in the CSF-1R and PDGFRα assay is FAM-[…]-CONH2 (FAM is carboxyfluorescein). Peptide should be >95% purity. The substrate for the KIT assay is FAM-[…]-NH2.
• 1. To a well of a 384-well plate add 5 μL of 2× enzyme buffer (or control) • 2. Add 100 nL of 100× compound. • 3. Add 5 μL of 2× substrate buffer. • 4. Incubate plate at 25° C. for 3 hours. • 5. Add 10 uL of […]. • 6. Read plate LabChip 3000 Drug Discovery System
• 3 hours at 25° C. where 100% Inhibitor: No enzyme.
• 100 mM HEPES, pH 7.5 0.1% BSA • 0.01% Triton X-100 • 1 mM DTT • 10 mM MnCl2 • 10 μM Sodium Orthovanadate • 10 μM Beta-Glycerophosphate • 400 μM ATP • 1% DMSO (from compound) • 1 μM FAM-[…]-CONH2 5.0 nM wtKIT Enzyme (1888289AM)* • *Specific activity may vary from lot to lot. Enzyme concentration may need to be adjusted to yield 10-20% conversion of substrate to product.

T2 sequence (P10721 26-976): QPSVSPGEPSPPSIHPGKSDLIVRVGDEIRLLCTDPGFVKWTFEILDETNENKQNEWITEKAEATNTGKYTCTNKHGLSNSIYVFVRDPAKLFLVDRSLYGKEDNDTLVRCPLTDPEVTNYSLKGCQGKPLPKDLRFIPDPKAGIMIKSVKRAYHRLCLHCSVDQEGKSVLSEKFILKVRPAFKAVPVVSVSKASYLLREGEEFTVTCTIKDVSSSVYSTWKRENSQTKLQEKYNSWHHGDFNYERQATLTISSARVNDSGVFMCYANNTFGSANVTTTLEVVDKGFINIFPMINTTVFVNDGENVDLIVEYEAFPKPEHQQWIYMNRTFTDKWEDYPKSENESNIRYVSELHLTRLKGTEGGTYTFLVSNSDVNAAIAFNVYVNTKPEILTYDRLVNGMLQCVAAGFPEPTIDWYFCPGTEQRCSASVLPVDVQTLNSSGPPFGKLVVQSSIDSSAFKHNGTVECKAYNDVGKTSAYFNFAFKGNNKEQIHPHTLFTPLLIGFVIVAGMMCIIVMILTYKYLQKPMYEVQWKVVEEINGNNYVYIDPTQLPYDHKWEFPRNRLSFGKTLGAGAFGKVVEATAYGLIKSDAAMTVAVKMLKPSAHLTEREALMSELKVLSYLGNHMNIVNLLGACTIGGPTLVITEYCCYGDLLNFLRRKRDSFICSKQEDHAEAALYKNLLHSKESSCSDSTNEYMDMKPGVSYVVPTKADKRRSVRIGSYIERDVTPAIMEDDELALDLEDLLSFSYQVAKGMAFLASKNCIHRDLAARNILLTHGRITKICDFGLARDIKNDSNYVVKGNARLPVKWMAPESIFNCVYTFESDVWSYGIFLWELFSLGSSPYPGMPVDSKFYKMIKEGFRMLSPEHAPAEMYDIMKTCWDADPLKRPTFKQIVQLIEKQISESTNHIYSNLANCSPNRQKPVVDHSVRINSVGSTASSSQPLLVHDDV

SMILES | Solubility (μM) (Kinetic solubility assay) | MDCK-BCRP: Efflux Ratio [1] | MDCK-BCRP: Papp A-B [1] | pIC50 (wtKIT)
Cc1ccc(-c2noc(C3CCN(C(=O)OC(C)(C)C)C3)n2)cc1NC(=O)c1cnc2ccccn12 (racemic) [Compound I-399] | *** (a solubility greater than 2 μM and less than or equal to 10 μM) | 2.78 | 6.48 10^−6 cm/s | 6.30 to 7.30
Cc1ccc(-c2noc(C3CCN3C(=O)OC(C)(C)C)n2)cc1NC(=O)c1cnc2ccccn12 (racemic) [Compound I-395] | ** (a solubility greater than 10 μM and less than or equal to 50 μM) | 3.28 | 19 10^−6 cm/s | 6.30 to 7.30
COC(=O)N1CC(c2nc(-c3ccc(Br)c(NC(=O)c4cnc5ccccn45)c3)no2)C1 [Compound I-338] | **** (a solubility less than or equal to 2 μM) | 0.82 | 23.1 10^−6 cm/s | ≥ 7.30
Cc1ccc(-c2noc(C3(C)CC(F)(F)C3)n2)cc1NC(=O)c1cnc2ccccn12 [Compound I-385] | **** (a solubility less than or equal to 2 μM) | 1.05 | 14.3 10^−6 cm/s | ≥ 7.30
COC(=O)C1CC(c2nc(-c3ccc(C)c(NC(=O)c4cnc5ccccn45)c3)no2)C1 (centres unmarked) [Compound I-342] | *** (a solubility greater than 2 μM and less than or equal to 10 μM) | 0.47 | 30 10^−6 cm/s | ≥ 7.30
Cc1ccc(-c2noc(C3CC(O)(c4ccccc4)C3)n2)cc1NC(=O)c1cnc2ccccn12 (centres unmarked) [Compound I-349] | **** (a solubility less than or equal to 2 μM) | 2.56 | 16.6 10^−6 cm/s | ≥ 7.30
COC1(OC)CCC1c1nc(-c2ccc(C)c(NC(=O)c3cnc4ccccn34)c2)no1 (racemic) [Compound I-308] | *** (a solubility greater than 2 μM and less than or equal to 10 μM) | 1.13 | 16.3 10^−6 cm/s | ≥ 7.30
CCOC1CC(c2nc(-c3ccc(C)c(NC(=O)c4cnc5ccccn45)c3)no2)C1 (centres unmarked) [Compound I-310] | **** (a solubility less than or equal to 2 μM) | 0.81 | 12 10^−6 cm/s | 6.30 to 7.30
Cc1ccc(-c2noc(C3CC(O)(C4(O)CCC4)C3)n2)cc1NC(=O)c1cnc2ccccn12 (centres unmarked) [Compound I-357] | *** (a solubility greater than 2 μM and less than or equal to 10 μM) | 63.9 | 0.47 10^−6 cm/s | 6.30 to 7.30
Cc1ccc(-c2noc(C3CCCN3)n2)cc1NC(=O)c1cnc2ccccn12 (racemic) [Compound I-391] | * (a solubility greater than 50 μM) | 12.1 | 2.13 10^−6 cm/s | ≥ 7.30
Cc1ccc(-c2noc(C3(C(F)F)CC(F)(F)C3)n2)cc1NC(=O)c1cnc2ccccn12 [Compound I-355] | **** (a solubility less than or equal to 2 μM) | 0.91 | 12.3 10^−6 cm/s | ≥ 7.30
COC1CC(c2nc(-c3ccc(C)c(NC(=O)c4cnc5ccccn45)c3)no2)C1 (centres unmarked) [Compound I-350] | ** (a solubility greater than 10 μM and less than or equal to 50 μM) | 1.52 | 8.86 10^−6 cm/s | ≥ 7.30
CSCC1(c2nc(-c3ccc(C)c(NC(=O)c4cnc5ccccn45)c3)no2)CC(F)(F)C1 [Compound I-354] | **** (a solubility less than or equal to 2 μM) | 1.03 | 7.97 10^−6 cm/s | ≥ 7.30
Cc1ccc(-c2noc(C3CC4(COCCO4)C3)n2)cc1NC(=O)c1cnc2ccccn12 (centres unmarked) [Compound I-343] | ** (a solubility greater than 10 μM and less than or equal to 50 μM) | 2.36 | 8.04 10^−6 cm/s | ≥ 7.30
